Laboratory results reported in patent publication US8288411B2, “Pyrrolidines and piperidines as orexin receptor antagonists” (Actelion Pharmaceuticals Ltd., priority 2007, dated 2012).
Like-named read-outs stand apart in the source and are kept apart here.

Legend:
[1] = target: T1, human orexin-1 receptor (Homo sapiens, UniProt O43613); assay: FLIPR intracellular calcium assay, orexin receptor antagonistic activity, CHO cells expressing human orexin-1 receptor; assay type: cell-based; details: read-out: OX1 IC50
T1 construct: expressed in transfected cells; host or cells: CHO cells (G418 selection)
T1 sequence (O43613 1-425): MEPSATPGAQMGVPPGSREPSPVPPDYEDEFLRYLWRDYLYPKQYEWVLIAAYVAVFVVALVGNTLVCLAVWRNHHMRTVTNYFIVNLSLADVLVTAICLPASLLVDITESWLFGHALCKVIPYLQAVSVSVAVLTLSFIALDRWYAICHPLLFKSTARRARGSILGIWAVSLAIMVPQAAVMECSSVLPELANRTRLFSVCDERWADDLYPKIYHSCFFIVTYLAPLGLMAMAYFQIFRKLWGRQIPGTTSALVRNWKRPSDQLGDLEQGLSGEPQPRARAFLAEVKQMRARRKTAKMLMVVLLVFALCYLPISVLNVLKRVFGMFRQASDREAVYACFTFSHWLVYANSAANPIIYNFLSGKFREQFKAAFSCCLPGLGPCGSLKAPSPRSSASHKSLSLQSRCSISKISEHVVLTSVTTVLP
Experimental: (§1) The orexin receptor antagonistic activity of the compounds of formula (I) is determined in accordance with one of the following experimental methods.
(§2) Chinese hamster ovary (CHO) cells expressing the human orexin-1 receptor and the human orexin-2 receptor, respectively, are grown in culture medium (Ham F-12 with L-Glutamine) containing 300 μg/ml G418, 100 U/ml penicillin, 100 μg/ml streptomycin and 10% heat inactivated fetal calf serum (FCS). The cells are seeded at 20'000 cells/well into 384-well black clear bottom sterile plates (Greiner). The seeded plates are incubated overnight at 37° C. in 5% CO2.
(§3) Human orexin-A as an agonist is prepared as 1 mM stock solution in MeOH: water (1:1), diluted in HBSS containing 0.1% bovine serum albumin (BSA), NaHCO3: 0.375 g/l and 20 mM HEPES for use in the assay at a final concentration of 3 nM.
(§4) Antagonists are prepared as 10 mM stock solution in DMSO, then diluted in 384-well plates, first in DMSO, then in HBSS containing 0.1% bovine serum albumin (BSA), NaHCO3: 0.375 g/l and 20 mM HEPES.
(§5) On the day of the assay, 50 μl of staining buffer (HBSS containing 1% FCS, 20 mM HEPES, NaHCO3: 0.375 g/l, 5 mM probenecid (Sigma) and 3 μM of the fluorescent calcium indicator fluo-4 AM (1 mM stock solution in DMSO, containing 10% pluronic) is added to each well.
(§6) The 384-well cell-plates are incubated for 50 min at 37° C. in 5% CO2 followed by equilibration at RT for 30-120 min before measurement.
(§7) Within the Fluorescent Imaging Plate Reader (FLIPR2 or FLIPR Tetra, Molecular Devices), antagonists are added to the plate in a volume of 10 μl/well, incubated for 10 min and finally 10 μl/well of agonist is added. Fluorescence is measured for each well at 1 second intervals, and the height of each fluorescence peak is compared to the height of the fluorescence peak induced by 3 nM orexin-A with vehicle in place of antagonist. For each antagonist, the IC50 value (the concentration of compound needed to inhibit 50% of the agonistic response) is determined. Optimized conditions may be achieved by adjustment of pipetting speed and cell splitting regime. The calculated IC50 values of the compounds may fluctuate depending on the daily cellular assay performance. Fluctuations of this kind are known to those skilled in the art.

[2] = target: T2, human orexin-2 receptor (Homo sapiens, UniProt O43614); assay: FLIPR intracellular calcium assay, orexin receptor antagonistic activity, CHO cells expressing human orexin-2 receptor; assay type: cell-based; details: read-out: OX2 IC50
T2 construct: expressed in transfected cells; host or cells: CHO cells (G418 selection)
T2 sequence (O43614 1-444): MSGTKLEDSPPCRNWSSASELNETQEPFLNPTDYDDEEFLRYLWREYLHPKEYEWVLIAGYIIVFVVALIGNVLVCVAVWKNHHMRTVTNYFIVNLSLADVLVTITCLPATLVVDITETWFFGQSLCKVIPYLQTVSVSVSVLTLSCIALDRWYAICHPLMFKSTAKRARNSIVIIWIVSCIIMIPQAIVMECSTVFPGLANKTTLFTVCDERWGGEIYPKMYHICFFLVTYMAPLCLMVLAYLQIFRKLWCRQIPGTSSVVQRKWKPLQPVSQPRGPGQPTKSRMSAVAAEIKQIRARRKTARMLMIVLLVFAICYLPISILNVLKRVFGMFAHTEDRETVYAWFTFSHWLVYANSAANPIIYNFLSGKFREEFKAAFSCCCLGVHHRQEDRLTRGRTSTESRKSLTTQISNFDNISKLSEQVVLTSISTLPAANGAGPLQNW
Experimental: as §1, §2, §3, §4, §5, §6, §7

[3] = marked with *: measured with FLIPR Tetra, 3 nM orexin-A as agonist
[4] = measured with FLIPR 2, 3 nM orexin-A as agonist

SMILES	IC50 [1, 3]	IC50 [2, 3]	IC50 [1, 4]	IC50 [2, 4]
Cn1nc(C(=O)NC[C@@H]2CCCN2C(=O)c2nc(-c3cccnc3)sc2-c2cccc(Cl)c2)c2ccccc21 [Example 44, (S)-1-methyl-1H-indazole-3-carboxylic acid{1-[5-(3-chloro-phenyl)-2-pyridin-3-yl-thiazole-4-carbonyl]-pyrrolidin-2-ylmethyl}-amide]	9 nM	18 nM	–	–
Cc1cccc(-c2nc(C(=O)N3CCC[C@H]3CNC(=O)c3c(C)nc4sccn34)c(-c3ccc(F)cc3)s2)c1 [Example 45, (S)-6-methyl-imidazo[2,1-b]thiazole-5-carboxylic acid{1-[5-(4-fluoro-phenyl)-2-m-tolyl-thiazole-4-carbonyl]-pyrrolidin-2-ylmethyl}-amide]	–	–	1 nM	12 nM
Cn1cc(C(=O)NC[C@@H]2CCCCN2C(=O)c2nc(-c3ccccc3)sc2-c2ccccc2F)c2ccccc21 [Example 24, (S)-1-methyl-1H-indole-3-carboxylic acid{1-[5-(2-fluoro-phenyl)-2-phenyl-thiazole-4-carbonyl]-piperidin-2-ylmethyl}-amide]	10 nM	60 nM	–	–
O=C(NC[C@@H]1CCCCN1C(=O)c1nc(-c2ccccc2)sc1-c1ccccc1F)c1cccc2c1CCO2 [Example 17, (S)-2,3-dihydro-benzofuran-4-carboxylic acid{1-[5-(2-fluoro-phenyl)-2-phenyl-thiazole-4-carbonyl]-piperidin-2-ylmethyl}-amide]	20 nM	68 nM	–	–
Cc1nc2sccn2c1C(=O)NC[C@@H]1CCCCN1C(=O)c1nc(-c2ccc(F)cc2)sc1-c1ccc(F)cc1 [Example 3]	–	–	1 nM	24 nM
Cc1ccc(-c2sc(-c3ccccc3)nc2C(=O)N2CCCC[C@H]2CNC(=O)c2c(C)nc3sccn23)cc1 [Example 38, (S)-6-methyl-imidazo[2,1-b]thiazole-5-carboxylic acid[1-(2-phenyl-5-p-tolyl-thiazole-4-carbonyl)-piperidin-2-ylmethyl]-amide]	–	–	2 nM	8 nM
COc1cccc(-c2nc(C(=O)N3CCCC[C@H]3CNC(=O)c3c(C)nc4sccn34)c(-c3ccc(F)cc3)s2)c1 [Example 5, (S)-6-methyl-imidazo[2,1-b]thiazole-5-carboxylic acid{1-[5-(4-fluoro-phenyl)-2-(3-methoxy-phenyl)-thiazole-4-carbonyl]-piperidin-2-ylmethyl}-amide]	–	–	2 nM	7 nM
